Results taken from patent US20110263539A1, “SHIP 1 MODULATOR COMPOUNDS” (THE UNIVERSITY OF BRITISH COLUMBIA, priority 2006, published 2011).
Blank lines part the entries; values can stand above or below the molecule they belong to.

Key:
[1] = test system: J774.1a macrophage cells; experiment: Macrophage TNF-α NO assay (Assay 3); format: cell-based; details: 10 μg/ml test compound, LPS, 24 hr, Griess reagent; note: key: a ‘+’ indicates a positive result for desired activity; a ‘−’ indicates a negative result for desired activity
Protocol: Assay 3) Macrophage TNF-α NO assay. J774.1a macrophage cells were treated with 10 μg/ml of test compound dissolved in solvent for 40 minutes prior to the addition of LPS. Culture supernatants were collected after 24 hr. for determination of NO concentration using the Griess reagent.

[2] = test system: J774.1a macrophage cells; experiment: Macrophage TNF-α production (Assay 2); format: cell-based; details: 10 μg/mL test compound, 100 ng/mL LPS, ELISA; note: key: a ‘+’ indicates a positive result for desired activity; a ‘−’ indicates a negative result for desired activity
Protocol: Assay 2) Macrophage TNF-α production. J774.1a macrophage cells were treated with 10 μg/mL of test compound dissolved in solvent (e.g. cyclodextran) for 40 minutes prior to the addition of 100 ng/mL LPS. Culture supernatants were collected after 2 hr and 5 hr for TNF-α determination by ELISA.

[3] = test system: J774.1 macrophage cells; experiment: TNFα production in J774.1 macrophages (Example 9); format: cell-based; details: 2 ng/mL LPS
Protocol: J774.1 macrophage cells were plated at 2×10^5 cells/well in 24 well plates. The next day the media was changed and Compound 100, Compound 103 or cyclodextrin carrier were added to the wells at the indicated concentrations for 30 min prior to stimulation of the cells with 2 ng/mL lipopolysaccharide (LPS). LPS activation of macrophages leads to production of TNF alpha which can be detected in the culture supernatant and quantified by ELISA. The results are depicted in a graph in FIG. 1.

[4] = test system: Mast cells; experiment: Stimulation of mast cells by FcεRI crosslinking (Assay 4); format: cell-based; details: anti-DNP IgE, DNP-HSA
Protocol: Assay 4) Stimulation of mast cells by FcåRI crosslinking. Mast cells were pre-loaded overnight in BMMC medium lacking IL-3 with 0.1 μg/ml anti-DNP IgE (SPE-7, Sigma, Oakville, Ont). For calcium flux measurements, cells were incubated with 2 μM fura 2-acetoxymethyl ester (Molecular Probes, Eugene, Oreg.) in Tyrode's buffer at 23° C. for 45 min. Cells were then washed and incubated in the presence of the test compound 30 min prior to stimulation with the indicated concentration of DNP-human serum albumin (DNP-HSA). Calcium influx was monitored by spectrofluorometry as described previously. For analysis of intracellular signaling, cells were pre-loaded with anti-DNP IgE as above, pre-treated with the test compound for 30 min at 37° C. and stimulated with 20 ng/ml DNP-HSA for 5 min. Total cell lysates were then prepared and analyzed for phospho-PKB, phospho-p38^MAPK, phospho-MAPK, Grb-2 (Cell Signalling, Mississauga, Ont) and SHIP^6 by immunoblot analysis.

[5] = test system: Bone marrow derived mast cells; experiment: Calcium influx in mast cells (Example 11); format: cell-based; details: anti IgE antibody, Fura-2
From the text: The activation of mast cells by IgE receptor crosslinking leads to an influx of calcium into the cells, followed by degranulation and secretion of pro-inflammatory mediator. Bone marrow derived mast cells were loaded with the fluorescent calcium indicator dye Fura-2 prior to treatment for 1 hr with Compound 106 or PBS carrier. Cells were then stimulated or not with an anti IgE antibody to cross-link the IgE receptors. Calcium influx was then monitored by fluorimetry. The results are depicted in a graph in FIG. 3.

[6] = test system: SHIP+/+ bone marrow derived macrophages; experiment: LPS stimulation of SHIP+/+ bone marrow derived macrophages; format: cell-based, mice; details: SHIP+/+ cells, 15 μM, 10 ng/mL LPS 2 h
Protocol: (§1) Bone marrow cells were aspirated from 4 to 8 week old C57B16×129Sv mixed background mice and SHIP and SHIP cells prepared as described previously. Bone marrow derived macrophages from SHIP^+/+ and SHIP^−/− mice were obtained and maintained in IMDM supplemented with 10% FCS, 150 μM MTG, 2% C127 cell conditioned medium as a source of macrophage colony stimulating factor (M-CSF) (macrophage medium)
LPS stimulation of macrophages. For the analysis of LPS-stimulated TNFα production, 2×10^5 cells were plated the night before in 24 well plates in macrophage medium. The next day, the medium was changed and AQX-016A or carrier was added to cells at the indicated concentrations for 30 min prior to the addition of 10 ng/mL LPS. Supernatants were collected for TNFα determination by ELISA (BD Biosciences, Mississauga, ON, Canada). For analysis of intracellular signaling, 2×10^6 cells were plated the night before in 6 cm tissue culture plates. The next day, the cells were cultured in macrophage medium without M-CSF for 1 hr at 37° C. and then pretreated with AQX-016A or carrier for 30 min prior to the addition of 10 ng/mL LPS for 15 min. Cells were washed with 4° C. PBS and resuspended in lysis buffer (50 mM Hepes, 2 mM EDTA, 1 mM NaVO4, 100 mM NaF, 50 mM NaPPi and 1% NP40) supplemented with Complete Protease Inhibitor Cocktail (Roche, Montreal, Canada). Lysates were rocked at 4° C. for 30 min and clarified by centrifuging 20 min at 12000×g. Lysates were then made 1× in Laemmli's buffer, boiled 2 min and loaded onto 7.5% SDS polyacrylamide […]. Immunoblot analysis for phospho PKB (Cell Signalling, Mississauga, Ont), SHIP and actin (Santa Cruz, Santa Cruz, Calif.) were carried out as described previously.
The target specificity and biological efficacy of AQX-016A were assessed by comparing AQX-016A's effects on PI3K-regulated processes in primary SHIP^+/+ vs SHIP^−/− macrophages and mast cells. […] LPS stimulation of macrophages is associated with a PIP3-dependent release of pro-inflammatory mediators such as TNFα. […]

[7] = test system: SHIP−/− bone marrow derived macrophages; experiment: LPS stimulation of SHIP−/− bone marrow derived macrophages; format: cell-based, mice; details: SHIP−/− cells, 15 μM, 10 ng/mL LPS 2 h
Protocol: as §1
LPS stimulation of macrophages. For the analysis of LPS-stimulated TNFα production, 2×10^5 cells were plated the night before in 24 well plates in macrophage medium. The next day, the medium was changed and AQX-016A or carrier was added to cells at the indicated concentrations for 30 min prior to the addition of 10 ng/mL LPS. Supernatants were collected for TNFα determination by ELISA (BD Biosciences, Mississauga, ON, Canada). For analysis of intracellular signaling, 2×10^6 cells were plated the night before in 6 cm tissue culture plates. The next day, the cells were cultured in macrophage medium without M-CSF for 1 hr at 37° C. and then pretreated with AQX-016A or carrier for 30 min prior to the addition of 10 ng/mL LPS for 15 min. Cells were washed with 4° C. […]
The target specificity and biological efficacy of AQX-016A were assessed by comparing AQX-016A's effects on PI3K-regulated processes in primary SHIP^+/+ vs SHIP^−/− macrophages and mast cells. […]

[8] = test system: ΔC2 SHIP; experiment: SHIP enzyme assay with C2 domain deleted SHIP; format: biochemical; details: PI-3,4-P2 20 μM or Compound 100 3 μM, 30 μM IP4
From the text: A His6 tagged SHIP ΔC2 domain deletion mutant (deleting residues 725 to 863) in the mammalian expression vector pME18S was generated by a standard PCR-based methodology. An N-terminal His6 C2 domain construct was also generated by PCR inserted into the pET28C bacterial expression vector using EcoRI and NdeI restriction sites.
The allosteric regulation of enzymes has remained under-appreciated primarily because allosteric effectors are not easy to find. The molecular mechanism by which Compound 100 activated SHIP was investigated, first by performing classical enzyme kinetic analysis of its phosphatase activity. Activity measurements were performed with substrate concentrations from 10-100 μM.
The SHIP protein contains a C2 domain located at the carboxyterminal end of its phosphatase domain. […] SHIP lacking its the C2 domain (ΔC2 SHIP) was prepared.

[9] = test system: SHIP enzyme; experiment: In vitro SHIP enzyme assay (Assay 1); format: biochemical; details: wild-type SHIP
Protocol: Assay 1) In vitro testing in a SHIP enzyme assay. Test compounds were dissolved in a suitable solvent (e.g. EtOH, DMSO and others) and diluted into aqueous buffer (20 mM Tris HCl, pH 7.5 and 10 mM MgCl2). SHIP enzyme assays were performed in 96-well microtitre plates with 10 ng of enzyme/well in a total volume of 25 μL of 20 mM Tris HCl, pH 7.5 and 10 mM MgCl2. SHIP enzyme was incubated with test extracts (provided in solvent) or vehicle for 15 min at 23° C. before the addition of 100 μM inositol-1,3,4,5-tetrakisphosphate (Echelon Biosciences Inc, Salt Lake City, Utah). After 20 min at 37° C. and the amount of inorganic phosphate released assessed by the addition of Malachite Green reagent and absorbance measurement at 650 nm.
For in vitro testing in the SHIP enzyme assay, AQX-016A and Compound 100 were dissolved in EtOH and diluted into aqueous buffer (20 mM Tris HCl, pH 7.5 and 10 mM MgCl2). The actual concentration of drug in solution was determined by optical density measurement at 280 nm (λmax for both compounds) after high speed centrifugation at 14 000×g for 30 min to remove precipitated drug. For testing on cells, compounds were formulated in the carrier cyclodextrin (Cyclodex Technologies, High Springs, Fla.) at 6 mM (2 mg/mL). For oral administration to animals, compounds were dissolved in 100% cremophore EL (Sigma-Aldrich Canada, Oakville, Ontario) at 150 mM (50 mg/mL) prior to dilution to 6 mM in phosphate buffer saline. However, while these compounds caged in cyclodextrin or formulated in cremophore EL micelles were very soluble in aqueous solution, they could not be used in the SHIP enzyme assays because of interference from both cyclodextrin and cremophore EL.
N-terminal His6 tagged SHIP enzyme was expressed in mammalian 293T cells by transient transfection with pME18S-His-SHIP plasmid and purified to >95% homogeneity by Ni-chelating bead chromatography (Qiagen, Mississauga, Ontario). Recombinant SHIP C2 domain (amino acid residues 725 to 863) was expressed in E. coli transformed with a pET28C expression vector constructed as described below. Recombinant protein purified from the cell lysates by Nichelating bead chromatography was >95% pure.
In vitro SHIP enzyme assay. SHIP enzyme assays were performed in 96-well microtitre plates with 10 ng of enzyme/well in a total volume of 25 μL of 20 mM Tris HCl, pH 7.5 and 10 Mm MgCl2. SHIP enzyme was incubated with test extracts (provided in DMSO) or vehicle for 15 min at 23° C. before the addition of 100 μM inositol-1,3,4,5-tetrakisphosphate (Echelon Biosciences Inc, Salt Lake City, Utah). After 20 min at 37° C. and the amount of inorganic phosphate released assessed by the addition of Malachite Green reagent and absorbance measurement at 650 nm. SHIP2 enzyme was purchased from Echelon Biosciences (Salt Lake City, Utah) and an equivalent amount of inositol phosphatase activity was used in the in vitro enzyme assay. Enzyme data are expressed as the mean of triplicates +/−SEM. Experiments were performed at least 3 times. (FIGS. 7A and 7B).

Compound: Cc1cc(OC(=O)CN)cc2c1[C@]1(C)CCC3C(C)(C)CCC[C@]3(C)[C@H]1C2 (some centres unmarked) [Compound 103]
Assay Number 3: Macrophage NO [1]: +
Assay Number 2: Macrophage TNF-α production [2]: +
inhibition of TNFα production [3]: Inhibits TNF Alpha Production Better than Compound 100

Compound: Cc1cc(OC(=O)C(N)CCCCN)cc2c1[C@]1(C)CCC3C(C)(C)CCC[C@]3(C)[C@H]1C2 (some centres unmarked) [Compound 106]
Assay Number 4: Stimulation of mast cells by FcεRI crosslinking [4]: +
Assay Number 3: Macrophage NO [1]: +
Assay Number 2: Macrophage TNF-α production [2]: +
inhibition of calcium influx [5]: Inhibits Calcium Influx in Mast Cells

Compound: O=c1cc(N2CCOCC2)oc2c(-c3ccccc3)cccc12 [LY294002, reference compound]
suppression of TNFα production [6]: up to −40%
suppression of TNFα production [7]: up to −40%

ΔC2 SHIP enzyme activity [8]: could not be enhanced
Compound: CCCCCCCCCCCCCCCC(=O)OC[C@H](COP(=O)(O)O[C@H]1[C@H](O)[C@@H](O)[C@H](OP(=O)(O)O)[C@@H](OP(=O)(O)O)[C@H]1O)OC(=O)CCCCCCCCCCCCCCC [PI-3,4-P2, phosphatidylinositol-3,4-bisphosphate diC16, reference compound]
SHIP enzyme activity [9]: activated wild-type SHIP enzyme to a similar extent as Compound 100
